Laboratory results: ChEMBL document CHEMBL1142493, “Structure-based approach to the development of potent and selective inhibitors of dihydrofolate reductase from cryptosporidium” (J Med Chem, 2008)

Experiment: Inhibition of Cryptosporidium hominis dihydrofolate reductase expressed in Escherichia coli by spectrophotometry

SMILES	IC50 [nM]
COc1cc(-c2c(C)cccc2C)cc(C(C)C#Cc2c(C)nc(N)nc2N)c1 (racemic)	2.1
COc1cc(C(C)C#Cc2c(C)nc(N)nc2N)ccc1-c1c(C(C)C)cccc1C(C)C (racemic)	16
